The values that follow come from patent US20240092779A1, “USP1 INHIBITORS AND USES THEREOF” (Zentaur Therapeutics USA Inc., priority 2022, published 2024).

For one data set, the system named is HCC1806 Ub-PCNA (USP1). As to the kind of experiment: USP1 Western Blot Protocol (HCC1806 Ub-PCNA). To be noted: Homo sapiens, HCC1806 cells, 4 hours. The data set is classed as cell-based. A digest of the protocol:
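HCC1806 cells seeded overnight, then treated 4 h at 37 °C with a 5-point, 4-fold dilution series (0.1% DMSO). Lysates immunoblotted for Ub-PCNA with fluorescent detection; inhibition expressed as % vehicle from Ub-PCNA upregulation, IC50 by four-parameter logistic fit.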

Data set [1] concerns the target T1, recombinant USP1/UAF1 enzyme complex (Homo sapiens, UniProt O94782).
T1 construct: purchased Biortus
As to the kind of experiment: Enzyme assay: deubiquitinase fluorometric assay with ubiquitin-Rhodamine substrate. It counts as biochemical. The conditions noted are these: USP1/UAF1, Ub-Rho110 substrate, 2 hours preincubation, 1 hour reaction. The method, then: Enzymatic inhibitory potency of the compounds was assessed in a deubiquitinase fluorometric assay using ubiquitin-Rhodamine (Ub-Rho110, R&D Systems) as substrate and the recombinant USP1/UAF1 enzyme complex (Biortus). Assays were performed in a final volume of 12 μL using black 384-well plates (Corning #4514) containing 50 mM HEPES (pH 7.5, BioRoYee), 0.5 mM EDTA, 1 mM dithiothreitol, 0.1 mg/mL bovine serum albumin, 50 nM Ub-Rhol10, 0.004 nM USP1/UAF1, and series diluted compounds from 10 μM to 0.5 nM (10 dilution steps). Assay-ready plates containing 40 nL of Echo-dispensed compound in DMSO were reconstituted with 2 μL of ddH2O, then 5 μL of USP1/UAF1 enzyme mixture was added and preincubated at room temperature for 2 hours. Enzymatic reaction was initiated by the addition of […] substrate mixture and assay allowed to proceed for 1 hour at room temperature before quenching with 3 μL of 150 mM citric acid. Fluorescence signal was detected via TECAN SPARK with excitation at 485 nm and emission at 535 nm. Data analysis was done using GraphPad Prism8 and IC50 values were obtained by 4-parameter logistic curve fitting.
Certain compounds were tested in the assays.

In the next data set the test system is MDA-MB-436 cells. As to the kind of experiment: CTG Protocol (MDA-MB-436 GI50), antiproliferative activity. It counts as cell-based, human. To be noted: Homo sapiens, 168 h; MDA-MB-436 cells (BRCA1 mutation), 7-day incubation, CellTiter-Glo. In short, it runs like this:
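BRCA1-mutant MDA-MB-436 cells were seeded at 1000 cells/well in DMEM, left overnight, then exposed to a 9-point, 3-fold compound series for 7 days at 37 °C, 5% CO2. Viability was read by CellTiter-Glo luminescence. % inhibition was plotted against concentration to derive GI50.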

Data set [2] is described as follows: Liver microsomal stability (HLM). It counts as in vitro ADME. To be noted: human, liver microsomes, human liver microsomes 0.5 mg/mL, 1 μM compound, NADPH. The method, then: Liver Microsomal Stability
Certain Compounds of the Disclosure were assessed for ADME metabolic stability in human liver microsomes (HLM).
Samples were prepared by adding 222.5 μL of a master solution (100 mM phosphate buffer and 0.5 mg/mL liver microsomes (HLM)) and 25 μL of a 10 mM NADPH solution to incubation plates, which were then warmed for 10 min. Each compound was separately dissolved in DMSO to prepare 10 mM stock solutions, which were then diluted to 100 μM with acetonitrile. A reaction was started by adding 2.5 μL of the […] solution of each compound to separate incubation plates such that the final concentration of for each compound in each plate was 1 μM. Aliquots of 30 μL were taken from the reaction solution at 0.5, 5, 15, 30 and 60 minutes. The reaction was stopped by the addition of 5 volumes of cold acetonitrile with IS (100 nM alprazolam, 200 nM caffeine and 100 nM tolbutamide). Aliquot of 100 μL of the supernatant was diluted by 100 μL ultra-pure water, and the mixture was used for LC/MS/MS analysis. Peak areas were determined from extracted ion chromatograms. […]. The percentage of remaining parent was calculated from peak area of test compound or PC. The slope value, k, is determined by linear regression of the natural logarithm of percent parent remaining vs. incubation time curve. All calculations are carried out using Microsoft Excel.
The in vitro half-life (in vitro t1/2) is determined from the slope value:
Conversion of the in vitro t1/2 (in min) into the in vitro intrinsic clearance (in vitro CLint, (HLM Clint (μL/min/mg proteins))) is done using the following equation: […]
A: HLM Clint <10 μL/min/mg; B: 10 μL/min/mg≤HLM Clint <50 μL/min/mg; C: HLM Clint ≥50 μL/min/mg.

Data set [3] is described as follows: Solubility in FaSSIF (Fasted State Simulated Intestinal Fluid). The data set is classed as physicochemical. To be noted: kinetic from dmso stock, FaSSIF pH 6.5, 25° C. The procedure:
Solubility in FaSSIF (Fasted State Simulated Intestinal Fluid)
Certain Compounds of the Disclosure were assessed for the apparent solubility in FaSSIF.
0.420 g of NaOH, 3.438 g of NaH2PO4 and 6.186 g of NaCl were dissolved into about 900 mL ultrapure water. The solution was adjusted to the pH of 6.5 with 1N NaOH or 1N HCl. The solution was then diluted with ultrapure water to 1000 mL at room temperature. The resulting solution is used as buffer solution.
2.240 g of FaSSIF Powder was added to about 500 mL of above-mentioned buffer solution. The solution was stirred until powder was completely dissolved. Then the solution was diluted with buffer A to 1000 mL at room temperature. This solution is FaSSIF to be used in the following experiment.
15 μL of stock solution (10 mM) of each sample was placed into their proper 96-well rack. 485 μL of FaSSIF was added into each vial of the cap-less solubility sample plate. One stir stick was added to each vial and the vial was sealed using a molded PTFE/Silicone plug. The solubility sample plate was transferred to the Eppendorf Thermomixer Comfort plate shaker and shaked at 25° C. at 1100 RPM for 2 hours. After completion of the 2 hours, the stir sticks using a big magnet were removed. The samples from the solubility sample plate were transferred into the filter plate. Using the vacuum manifold, all the samples are filtered. Aliquot of 5 μL was taken from filtrate followed by addition of 5 μL DMSO and 490 μL of a mixture of H2O and acetonitrile containing internal standard (1:1).
3 μM Standards solution (STD) was prepared from the 10 mM DMSO STD plate.as following: transferring 6 μL into the remaining empty plate, adding 194 μL of DMSO to that plate to have a STD concentration of 300 μM. From the 300 μM DMSO STD plate, 5 μL solution was transferred into the remaining empty plate. Addition of 5 μL PBS and 490 μL of a mixture of H2O and acetonitrile containing internal standard (1:1) to that plate furnished a final STD concentration of 3 μM STD solution.
The samples are analyzed and quantified against the standard of known concentration using LC/MS/MS, calculating the solubility of the test compound as following (DF means the dilution factor):
[Sample solubility in FsSSIF (04)]=Area Ratio sample×DF sample×[STD]/Area Ratio STD

T1 sequence (O94782 whole entry): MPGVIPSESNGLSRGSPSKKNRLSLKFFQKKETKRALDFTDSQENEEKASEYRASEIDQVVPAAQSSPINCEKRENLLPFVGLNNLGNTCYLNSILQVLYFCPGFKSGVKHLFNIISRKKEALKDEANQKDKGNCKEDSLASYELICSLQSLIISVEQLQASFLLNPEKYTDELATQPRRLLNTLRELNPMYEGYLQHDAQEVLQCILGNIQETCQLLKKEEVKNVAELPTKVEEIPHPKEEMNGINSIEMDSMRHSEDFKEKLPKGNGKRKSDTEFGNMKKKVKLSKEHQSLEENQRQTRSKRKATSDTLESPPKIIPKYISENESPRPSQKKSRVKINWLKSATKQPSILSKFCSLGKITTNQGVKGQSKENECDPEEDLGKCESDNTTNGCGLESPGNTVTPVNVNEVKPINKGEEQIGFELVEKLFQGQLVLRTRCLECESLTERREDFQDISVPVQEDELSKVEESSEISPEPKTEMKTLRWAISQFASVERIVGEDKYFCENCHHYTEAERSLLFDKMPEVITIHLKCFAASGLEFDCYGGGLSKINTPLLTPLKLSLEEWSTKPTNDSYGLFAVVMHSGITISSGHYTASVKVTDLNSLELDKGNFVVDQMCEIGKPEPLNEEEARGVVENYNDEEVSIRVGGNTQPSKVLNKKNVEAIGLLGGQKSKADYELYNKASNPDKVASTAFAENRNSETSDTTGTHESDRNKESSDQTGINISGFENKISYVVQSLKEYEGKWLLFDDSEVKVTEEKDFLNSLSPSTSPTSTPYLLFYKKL
T1 sequence (Q8TAF3 whole entry partner): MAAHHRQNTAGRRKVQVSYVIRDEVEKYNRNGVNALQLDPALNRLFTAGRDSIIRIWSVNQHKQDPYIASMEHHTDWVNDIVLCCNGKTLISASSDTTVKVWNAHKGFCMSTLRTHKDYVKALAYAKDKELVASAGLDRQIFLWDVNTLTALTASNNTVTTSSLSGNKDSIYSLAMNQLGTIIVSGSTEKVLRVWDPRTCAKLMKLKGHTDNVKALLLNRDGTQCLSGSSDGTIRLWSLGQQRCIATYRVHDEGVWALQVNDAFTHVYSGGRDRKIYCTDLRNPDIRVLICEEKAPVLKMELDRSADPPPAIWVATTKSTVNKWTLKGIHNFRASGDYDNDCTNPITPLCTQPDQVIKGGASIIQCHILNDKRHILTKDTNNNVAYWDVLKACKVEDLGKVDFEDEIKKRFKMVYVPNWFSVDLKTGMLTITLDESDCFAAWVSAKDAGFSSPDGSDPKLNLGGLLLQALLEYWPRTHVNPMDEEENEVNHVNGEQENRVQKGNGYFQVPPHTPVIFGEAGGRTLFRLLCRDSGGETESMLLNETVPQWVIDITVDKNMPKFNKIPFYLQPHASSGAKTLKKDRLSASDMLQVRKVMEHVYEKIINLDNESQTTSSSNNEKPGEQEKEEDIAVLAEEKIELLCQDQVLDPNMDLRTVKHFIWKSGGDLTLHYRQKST

As for `COc1cc(Cn2c(=O)ccc3cnc(-c4c(OC)ncnc4C4CC4)nc32)cc(F)c1-c1nc(C(F)(F)F)cn1C1CC1` [Compound 53, 8-({4-[1-cyclopropyl-4-(trifluoromethyl)imidazol-2-yl]-3-fluoro-5-methoxyphenyl}methyl)-2-(4-cyclopropyl-6-methoxypyrimidin-5-yl)pyrido[2,3-d]pyrimidin-7-one], the IC50 (with HCC1806 Ub-PCNA (USP1); in data set [1]) was 0.01 to 0.1 µM throughout. In the data set on MDA-MB-436 cells, the 50% growth inhibitory concentration (GI50) was below 0.01 µM.

Turning to `COc1ncnc(C2CC2)c1-c1ncc2cc(CN3CCNCC3)c(=O)n(Cc3ccc(-c4nc(C(F)(F)F)cn4C)cc3)c2n1` [Compound 54, 2-(4-cyclopropyl-6-methoxypyrimidin-5-yl)-8-({4-[1-methyl-4-(trifluoromethyl)imidazol-2-yl]phenyl}methyl)-6-(piperazin-1-ylmethyl)pyrido[2,3-d]pyrimidin-7-one], the 50% inhibitory concentration (IC50) with HCC1806 Ub-PCNA (USP1) was 0.1 to 1 µM; in data set [1], 0.01 to 0.1 µM. Moreover, the GI50 in the data set on MDA-MB-436 cells lay within 0.01 to 0.1 µM.

As for `COc1ncnc(C2CC2)c1-c1ncc2ccc(=O)n(Cc3ccc(-c4nc(C(F)(F)F)cn4CCO)cc3)c2n1` [Compound 60, 2-(4-cyclopropyl-6-methoxypyrimidin-5-yl)-8-({4-[1-(2-hydroxyethyl)-4-(trifluoromethyl)imidazol-2-yl]phenyl}methyl)pyrido[2,3-d]pyrimidin-7-one], the IC50 (in the data set with HCC1806 Ub-PCNA (USP1); in data set [1]) was 0.01 to 0.1 µM throughout.

With `CCn1cc(C(F)(F)F)nc1-c1ccc(Cn2c(=O)c(C(=O)N(C)C)cc3cnc(-c4c(OC)ncnc4C4CC4)nc32)cc1` [Compound I-39, 2-(4-cyclopropyl-6-methoxypyrimidin-5-yl)-8-({4-[1-ethyl-4-(trifluoromethyl)imidazo]-2-yl]phenylmethyl)-N,N-dimethyl-7-oxopyrido[2,3-d]pyrimidine-6-carb oxamide], the IC50 in data set [1] fell in the range of 0.01 to 0.1 µM. In the data set on MDA-MB-436 cells, this compound came in with a 50% growth inhibitory concentration (GI50) of 0.01 to 0.1 µM.

As for `COc1ncnc(C2CC2)c1-c1ncc2cc(Br)c(=O)n(Cc3ccc(-c4nc(C(F)(F)F)cn4C)cc3)c2n1` [Compound I-40], the IC50 in data set [1] was in the range of 0.01 to 0.1 µM. In addition, the GI50 with MDA-MB-436 cells fell in the range of 0.01 to 0.1 µM.

As to `COc1ncnc(C2CC2)c1-c1ncc2cc(-c3cnn(C4CN(C)C4)c3)c(=O)n(Cc3ccc(-c4nc(C(F)(F)F)cn4C4CC4)cc3)c2n1` [Compound I-137], the microsomal CLint at 1 μM in data set [2] lay in the range of 10 to 50 µL/min/mg. The same compound gave a solubility at 2 h in data set [3] of at least 100 µM.

Turning to `COc1ncnc(C2CC2)c1-c1ncc2cc(-c3cnn(C)c3)c(=O)n(Cc3ccc(-c4nc(C(F)(F)F)cn4C(C)C)cc3)c2n1` [Compound I-138], the microsomal CLint at 1 μM in data set [2] is below 10 µL/min/mg. The same compound displayed a solubility at 2 h in data set [3] of at least 100 µM.

For the compound `COc1ncnc(C2CC2)c1-c1ncc2cc(-c3cccnc3)c(=O)n(Cc3ccc(-c4nc(C(F)(F)F)cn4C4CC4)cc3)c2n1` [Compound I-139], the microsomal CLint at 1 μM in data set [2] was below 10 µL/min/mg. The same compound yielded a solubility at 2 h in data set [3] of at least 100 µM.

For the compound `COc1ncnc(C2CC2)c1-c1ncc2cc(-c3cnc(C)nc3)c(=O)n(Cc3ccc(-c4nc(C(F)(F)F)cn4C4CC4)cc3)c2n1` [Compound I-140], in data set [2], the microsomal CLint at 1 μM was below 10 µL/min/mg. Also, in data set [3], the solubility at 2 h was at least 100 µM.

Consider `COc1ncnc(C2CC2)c1-c1ncc2cc(-c3cnn(C4CCN(C)CC4)c3)c(=O)n(Cc3ccc(-c4nc(C(F)(F)F)cn4C4CC4)cc3)c2n1` [Compound I-143], for which the microsomal CLint at 1 μM in data set [2] fell in the range of 10 to 50 µL/min/mg. For the same compound, the solubility at 2 h in data set [3] is at least 100 µM.

In data set [2], `COc1ncnc(C2CC2)c1-c1ncc2cc(-c3cn(C)c(C)n3)c(=O)n(Cc3ccc(-c4nc(C(F)(F)F)cn4C4CC4)cc3)c2n1` [Compound I-144] registered a microsomal CLint at 1 μM of 10 to 50 µL/min/mg. In data set [3], this compound showed a solubility at 2 h below 10 µM.

Regarding `COc1ncnc(C2CC2)c1-c1ncc2cc(-c3ncccn3)c(=O)n(Cc3ccc(-c4nc(C(F)(F)F)cn4C4CC4)cc3)c2n1` [Compound I-145], in data set [2], the microsomal CLint at 1 μM is below 10 µL/min/mg. The same compound displayed a solubility at 2 h in data set [3] of at least 100 µM.
